The values below come from patent publication US6946277B2, “Method for enhancing cellobiase activity of termitomyces clypeatus using a glycosylation inhibitor” (Council of Scientific and Industrial Research, priority 2001, dated 2005).

In test [1] the test system is Termitomyces clypeatus. Put plainly: Cellobiase activity of culture filtrate of Termitomyces clypeatus grown with glycosylation inhibitors (p-nitro phenyl β-D-glucoside substrate). As to conditions: for Maximum cellobiase activity: Termitomyces clypeatus in presence of 2-deoxyglucose. It is filed as cell-based. As for the experimental part:
(§1) The fungus is maintained in agar slants containing (w/w) glucose 5%, potato extract 10%, malt extract 5%, KH2PO4 0.087%, MgSO4, 7H2O 0.05%. Cultivation of the fungus is carried out between temperatures 20-37° C., preferably at 28-30° C. and at pH between 3-8, preferably at 4-6, under aerobic condition in shake flask in liquid medium on a rotary shaker (200-300 strokes per minute). Among the assimilable carbon sources (cellobiose, mannose, fructose, xylose, arabinose, starch, dextrin, cellulose, cotton, xylan and agrowastes like baggasse powder, rice-straw powder, wheat bran, corn cob powder, corn powder; in presence of TCA cycle acids like succinate, fumarate, maleate or amino acids like aspartate, glutamate, serine, histidine and alanine or glucose analogues like D-glucosamine) D-cellobiose with succinate served as one of the best carbon sources in the concentration range of 0.5-2%(w/v). Among the assimilable nitrogen sources (ammonium chloride, ammonium nitrate, ammonium di hydrogen phosphate, potassium nitrate and organic nitrogen sources such as malt extract, yeast extract, potato extract, soya-peptone and bactopeptone) ammonium di hydrogen phosphate was used. Among the glycosylation inhibitors (Tunicamycin, deoxynojirimycin, 2-deoxy-D-glucose and D-glucono-lactone) 2-deoxy glucose was preferred (Table 1). Detergents used were Tween 20, Tween-80, or Tween-100. Initial pH of the medium may be maintained at 3-7, preferably at 4.5. Inoculum is prepared in the medium in polypropylene conical flask with sterile glass balls (1-1.5 cm in diameter) 3-4 numbers in 250-ml flask. The fine mycelia grown in liquid medium after 2-4 days of growth were added to the fermentation medium at the ratio of 1:10 (v/v). Optimum production of enzyme took place after 3 days of inoculation, between 4-6th days. The culture filtrate is freed from mycelia by any known method of filtration. Cellobiase activity of the culture medium was assayed using p-nitro phenyl β-D-glucoside as substrate. Reference may be made to Khowala. S. And Sengupta. S. (1992) Enzyme and microbial Technology, volume 14, pages144-149. One unit of activity was taken as the amount of enzyme, which could liberate one micromole of p-nitro phenol from p-nitro phenyl β-D-glucoside in the reaction mixture incubated at 50° C. for 30 minutes (Table 1 and 2). Endo-glucanase and cellobiohydrolase activities were measured by dinitrosalicylic acid reagent using carboxy methylcellulose (Sigma chemical co.) and crystalline cellulose (Sigma chemical co.) respectively as substrate (Table 2). Reference may be made to Sumner J. B. and Sumner G. (1949) in Laboratory Experiments in Chemistry, Academic press, New York, page 38. One unit of enzyme was considered as the amount of enzyme that could liberate one micromole of glucose equivalent per minute in buffer at pH 5.0 at 50° C.
[…] The 250 ml conical flask containing 50 ml of medium were autoclaved for 20 minutes at 15 pounds per square inch pressure, where separately autoclaved ammonium di hydrogen orthophosphate at the concentration of 2.4% w/w was added to the medium after sterilization. The medium was cooled and was inoculated at the rate of 10% mycelia (blended) of the fungus developed earlier in flasks with glass marbles. The culture was grown in the medium for 4 days at temperatures 28°-32° C. on a rotary-shaker. The culture filtrate was freed from mycelia and the clear supernatant was used as a source of enzymes. Cellobiase activity was 90 units per ml, endo-glucanase was 4.5 units per ml, and cellobiohydrolase was 3.5 units per ml, respectively. Cellobiase activity in absence of 2-deoxy-D-glucose in the control medium was 1.44 units per ml.
The fungus Termitomyces clypeatus IICB-411 was grown in a medium containing (w/w, %): Cellobiose 1, 2-deoxy-D-glucose 0.5, mannose 0.5, sodium succinate 0.5, KH2PO4 0.087, MgSO4, 7H2O 0.05 at pH 4.5. […]

The test system of the next test is Trichoderma reesei. As to conditions: cited from earlier work.
The subject of test [2] is Termitomyces clypeatus. Put plainly: Endo-glucanase activity of culture filtrate (carboxy methylcellulose, dinitrosalicylic acid reagent). The settings on record: for endo-glucanase: 4 days, pH 4.5. It is filed as cell-based. How it is done: as §1
(§2) The fungus Termitomyces clypeatus IICB-411 was grown in a medium containing (w/w, %): Cellobiose 1, 2-deoxy-D-glucose 0.30, sodium succinate 0.5, KH2PO4 0.087, MgSO4, 7H2O 0.05 at pH 4.5. The 250 ml conical flask containing 50 ml of medium were autoclaved for 20 minutes at 15 pounds per square inch pressure, where separately autoclaved ammonium di hydrogen orthophosphate at the concentration of 2.4% w/w was added to the medium after sterilization. The medium was cooled and was inoculated at the rate of 10% mycelia (blended) of the fungus developed earlier in flasks with glass marbles. The culture was grown in the medium for 4 days at temperatures 28°-32° C. on a rotary-shaker. The culture filtrate was freed from mycelia and the clear supernatant was used as a source of enzymes. Cellobiase activity was 90 units per ml, endo-glucanase was 4.5 units per ml, and cellobiohydrolase was 3.5 units per ml, respectively. Cellobiase activity in absence of 2-deoxy-D-glucose in the control medium was 1.44 units per ml. […]

The subject of another test is Dichomitus squalenes. The experiment in a line: Cellobiase activity of Dichomitus squalenes in a similar medium. The class given is cell-based. As to conditions: Dichomitus squalenes in presence of 2-deoxyglucose.
The subject of a further test is T. clypeatus. Put plainly: Growth of the fungus T. clypeatus in presence of 2-deoxy-D-glucose. It is filed as cell-based, Termitomyces clypeatus. The settings on record: at higher concentrations (above 0.05 to 5% w/v). An excerpt:
The inventive step is the addition of 2-deoxy-D-glucose in the growth medium in presence of assimilable carbon and nitrogen sources and other nutrients. 2-deoxy-D-glucose is non-fermentable analogue of glucose and mannose, and is known to interfere in formation of wall polysaccharides in yeast [Reference may be made to European Journal of Biochemistry (1975), Volume 54, pages 459-467] and to increase protein secretion in Trichoderma reesei [Reference may be made to Journal of General Microbiology (1989) Volume 135, pages 301-307]; but it acts as a glycosylation inhibitor, increases synthesis and secretion of extracellular proteins in Termitomyces clypeatus, when used in the concentration range of 0.05 to 5%(w/v) and high cellobiase activity is produced in presence of cellobiose, as determined in the applicants laboratory.

For test [3], the system named is Termitomyces clypeatus. The experiment in a line: Cellobiohydrolase activity of culture filtrate (crystalline cellulose, dinitrosalicylic acid reagent). It is filed as cell-based. The settings on record: for cellobiohydrolase: 4 days, pH 4.5. How it is done: as §1, §2
Setting [4] is: Control medium + 2-deoxy-D-glucose 300 μg/ml (Example 2), Table 2.
Setting [5] is: Control medium + 2-deoxy-D-glucose 1 mg/ml + Mannose 500 μg/ml.
Where [6] appears, read: Control medium + 2-deoxyglucose 1 mg/ml (Example 1), Table 2.
Setting [7] is: Example 1: 2-deoxy-D-glucose 0.30 % w/w.
The mark [8] stands for this setting: Example 2: 2-deoxy-D-glucose 0.5 % + mannose 0.5 % w/w.
The mark [9] stands for this setting: Example 3: 2-deoxy-D-glucose 1 % w/w.

Consider Tunicamycin, for which the Cellobiase activity in the test with Termitomyces clypeatus [1] (Control + Tunicamycin 10 μg/ml) stood at 1.2075 units/ml. In addition, the “effect on secretion of proteins” value with Trichoderma reesei (Tunicamycin 0-50 μg/ml) is on record as “no effect”.
Consider `O=CC[C@@H](O)[C@H](O)[C@H](O)CO` [2-deoxy-D-glucose], for which the Cellobiase activity stood at 2.236 units/ml in the test with Termitomyces clypeatus [1] (Control + 2-deoxy-D-glucose 0.05 mg/ml); 50.097 units/ml with Termitomyces clypeatus [1] (Control + 2-deoxy-D-glucose 1 mg/ml); 0.081 units/ml in the test on Termitomyces clypeatus [1] (Control + 2-deoxy-D-glucose 5 mg/ml); 90.020 units/ml in the test with Termitomyces clypeatus [1] (setting [4]); 140.60 units/ml in the test on Termitomyces clypeatus [1] (setting [5]); 50.097 units/ml with Termitomyces clypeatus [1] (setting [6]). Besides, the Cellobiase activity is given as 90 units per ml with Termitomyces clypeatus [1] (Example 1: 2-deoxy-D-glucose 0.30 % w/w, 4 days, pH 4.5); 140 units per ml in the test with Termitomyces clypeatus [1] (Example 2: 2-deoxy-D-glucose 0.5 % + mannose 0.5 % w/w, 4 days, pH 4.5); 50 units per ml in the test with Termitomyces clypeatus [1] (Example 3: 2-deoxy-D-glucose 1 % w/w, 4 days, pH 4.5). Besides, the Maximum cellobiase activity is given as 90.0 U/ml in the test on Termitomyces clypeatus [1] (Example-1), 140.0 U/ml with Termitomyces clypeatus [1] (Example-2), 50.0 U/ml in the test with Termitomyces clypeatus [1] (Example-3) and 0.05^C U/ml with Dichomitus squalenes. In the test with Termitomyces clypeatus [1] (at lower concentrations), the “enhanced production and secretion of enzyme” value is “the effect is not observed”. For the same compound, the Endo-glucanase activity in the test on Termitomyces clypeatus [2] (setting [4]) was determined as 4.637 units/ml; with Termitomyces clypeatus [2] (setting [5]), 1.086 units/ml; with Termitomyces clypeatus [2] (setting [6]), 4.112 units/ml. Also, the endo-glucanase was determined as 4.5 units per ml in the test with Termitomyces clypeatus [2] (setting [7]), 6 units per ml in the test with Termitomyces clypeatus [2] (setting [8]) and 4 units per ml in the test on Termitomyces clypeatus [2] (setting [9]). The “growth of the fungus” value in the test on T. clypeatus is “inhibit growth”. In the test on Trichoderma reesei (2-deoxy-D-glucose 0-150 μg/ml), the “biosynthesis of extracellular as well as intracellular protein” value is on record as “inhibited”. Further, the figures for the Cellobiohydrolase activity in the test with Termitomyces clypeatus [3] (setting [4]), in the test on Termitomyces clypeatus [3] (setting [5]) and in the test with Termitomyces clypeatus [3] (setting [6]) were 3.600 units/ml, 4.873 units/ml and 3.546 units/ml, respectively. The cellobiohydrolase with Termitomyces clypeatus [3] (setting [7]), in the test with Termitomyces clypeatus [3] (setting [8]) and with Termitomyces clypeatus [3] (setting [9]) was 3.5 units per ml in each case.
For the compound `OC[C@H]1NC[C@H](O)[C@@H](O)[C@@H]1O` [1-deoxynojirimycin], the Cellobiase activity in the test on Termitomyces clypeatus [1] (Control + 1-deoxynojirimycin 80 μM) is 1.4085 units/ml.
Turning to `O=C1O[C@H](CO)[C@@H](O)[C@H](O)[C@H]1O` [glucono-lactone, D-glucono-lactone], the Cellobiase activity in the test on Termitomyces clypeatus [1] (Control + glucono-lactone 2 mg/ml) amounted to 6.1820 units/ml.
